Laboratory results: US9315503B2, “Kinase inhibitors” (CHIESI FARMACEUTICI S.p.A., priority 2011, dated 2016)
Where a name gives a salt, the structure may show the parent alone.

Assays:
[1] = target: T1, p38alpha (Homo sapiens, UniProt Q16539); assay: P38Alpha enzyme inhibition assay (Alphascreen kinase activity assay); format: biochemical; settings: 100 pM p38alpha, 250 μM ATP, 2 hours pre-incubation at 25° C., read-out: p38α inhibition (IC50 values)
T1 construct: purchased Invitrogen PV3304
Outline: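 p38α (100 pM) with ATF-2 fusion protein substrate (0.3 µg/ml) in pH 7.5 HEPES/MgCl2 buffer, 1% DMSO, preincubated 2 h at 25°C with compound. Reaction started with 250 µM ATP, ran 1 h at 25°C, then stopped with EDTA. Phospho-ATF2 antibody detected by AlphaScreen luminescence; IC50 from concentration-response curves.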

[2] = test system: LPS-stimulated TNFα release from PBMCs; assay: LPS-stimulated PBMC TNFα release assay; format: cell-based; settings: inhibition of TNFα release, human PBMCs, LPS 10 ng/ml, 18 h, ELISA, read-out: p38α inhibition (IC50 values)
Outline: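 Healthy-donor human PBMCs, density-gradient isolated, preincubated 1 h at 37 °C with compound in 1% FBS RPMI 1640, then stimulated with LPS (10 ng/ml) for 18 h. Supernatant TNFα by ELISA; IC50 from dose-response of % inhibition of control release, n≥3 experiments.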

T1 sequence (Q16539 whole entry): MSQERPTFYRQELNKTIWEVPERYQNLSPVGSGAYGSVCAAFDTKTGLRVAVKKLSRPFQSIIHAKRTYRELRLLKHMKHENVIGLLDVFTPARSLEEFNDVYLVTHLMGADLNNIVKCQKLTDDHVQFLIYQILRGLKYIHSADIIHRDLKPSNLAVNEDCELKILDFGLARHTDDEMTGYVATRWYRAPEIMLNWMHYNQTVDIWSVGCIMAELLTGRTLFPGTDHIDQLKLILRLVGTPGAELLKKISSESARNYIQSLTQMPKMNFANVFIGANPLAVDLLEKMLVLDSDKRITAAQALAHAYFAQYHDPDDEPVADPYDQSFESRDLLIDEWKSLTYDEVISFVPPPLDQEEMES

## Cc1ccc(-n2nc(C(C)(C)C)cc2NC(=O)N[C@H]2CC[C@H](Oc3ccc4nnc([C@@H]5CCCN5C)n4c3)c3ccccc32)cc1 [Example 72, 1-(5-tert-Butyl-2-p-tolyl-2H-pyrazol-3-yl)-3-{(1S,4S)-4-[3-((S)-1-methyl-pyrrolidin-2-yl)-[1,2,4]triazolo[4,3-a]pyridin-6-yloxy]-1,2,3,4-tetrahydro-naphthalen-1-yl}-urea]
[1]
  IC50: < 10 nM
[2]
  IC50: < 10 nM

## CN1CCC[C@H]1c1nnc2ccc(O[C@@H]3CC[C@H](NC(=O)Nc4cc(C(C)(C)C)nn4-c4ccc(O)cc4)c4ccccc43)cn12 [Example 73, 1-[5-tert-Butyl-2-(4-hydroxy-phenyl)-2H-pyrazol-3-yl]-3-{(1S,4R)-4-[3-((S)-1-methyl-pyrrolidin-2-yl)-[1,2,4]triazolo[4,3-a]pyridin-6-yloxy]-1,2,3,4-tetrahydro-naphthalen-1-yl}-urea]
[1]
  IC50: < 10 nM
[2]
  IC50: < 10 nM

## Cc1ccc(-n2nc(C(C)(C)C)cc2NC(=O)N[C@H]2CC[C@@H](Oc3ccc4nnc(N5CCC(C(C)(C)O)CC5)n4c3)c3ccccc32)cc1 [Example 74, 1-(5-tert-Butyl-2-p-tolyl-2H-pyrazol-3-yl)-3-((1S,4R)-4-{3-[4-(1-hydroxy-1-methyl-ethyl)-piperidin-1-yl]-[1,2,4]triazolo[4,3-a]pyridin-6-yloxy}-1,2,3,4-tetrahydro-naphthalen-1-yl)-urea]
[1]
  IC50: < 10 nM
[2]
  IC50: < 10 nM

## Cc1ccc(-n2nc(C(C)(C)C)cc2NC(=O)N[C@H]2CC[C@@H](Oc3ccc4nnc(N5CCCC5)n4c3)c3ccccc32)cc1 [Example 75, 1-(5-tert-Butyl-2-p-tolyl-2H-pyrazol-3-yl)-3-[(1S,4R)-4-(3-pyrrolidin-1-yl-[1,2,4]triazolo[4,3-a]pyridin-6-yloxy)-1,2,3,4-tetrahydro-naphthalen-1-yl]-urea]
[1]
  IC50: < 10 nM
[2]
  IC50: < 10 nM

## Cc1ccc(-n2nc(C(C)(C)C)cc2NC(=O)N[C@H]2CC[C@@H](Oc3ccc4nnc(C(C)(C)N(C)C)n4c3)c3ccccc32)cc1 [Example 76, 1-(5-tert-Butyl-2-p-tolyl-2H-pyrazol-3-yl)-3-{(1S,4R)-4-[3-(1-dimethylamino-1-methyl-ethyl)-[1,2,4]triazolo[4,3-a]pyridin-6-yloxy]-1,2,3,4-tetrahydro-naphthalen-1-yl}-urea partial formate salt]
[1]
  IC50: < 10 nM
[2]
  IC50: < 10 nM

## Cc1ccc(-n2nc(C(C)(C)C)cc2NC(=O)N[C@H]2CC[C@@H](Oc3ccc4nnc(N5CCC[C@@H](CO)C5)n4c3)c3ccccc32)cc1 [Example 77, 1-(5-tert-Butyl-2-p-tolyl-2H-pyrazol-3-yl)-3-{(1S,4R)-4-[3-((R)-3-hydroxymethyl-piperidin-1-yl)-[1,2,4]triazolo[4,3-a]pyridin-6-yloxy]-1,2,3,4-tetrahydro-naphthalen-1-yl}-urea]
[1]
  IC50: < 10 nM
[2]
  IC50: < 10 nM

## Cc1ccc(-n2nc(C(C)(C)C)cc2NC(=O)N[C@H]2CC[C@@H](Oc3ccc4nnc(N5CCC[C@H](CO)C5)n4c3)c3ccccc32)cc1 [Example 78, 1-(5-tert-Butyl-2-p-tolyl-2H-pyrazol-3-yl)-3-{(1S,4R)-4-[3-((S)-3-hydroxymethyl-piperidin-1-yl)-[1,2,4]triazolo[4,3-a]pyridin-6-yloxy]-1,2,3,4-tetrahydro-naphthalen-1-yl}-urea]
[1]
  IC50: < 10 nM
[2]
  IC50: < 10 nM

## Cc1ccc(-n2nc(C(C)(C)C)cc2NC(=O)N[C@H]2CC[C@@H](Oc3ccc4nnc(N5CCC(C)(O)CC5)n4c3)c3ccccc32)cc1 [Example 79, 1-(5-tert-Butyl-2-p-tolyl-2H-pyrazol-3-yl)-3-{(1S,4R)-4-[3-(4-hydroxy-4-methyl-piperidin-1-yl)-[1,2,4]triazolo[4,3-a]pyridin-6-yloxy]-1,2,3,4-tetrahydro-naphthalen-1-yl}-urea]
[1]
  IC50: < 10 nM
[2]
  IC50: < 10 nM

## Cc1ccc(-n2nc(C(C)(C)C)cc2NC(=O)N[C@H]2CC[C@@H](Oc3ccc4nnc(C(C)(C)N5CCCC5)n4c3)c3ccccc32)cc1 [Example 80, 1-(5-tert-Butyl-2-p-tolyl-2H-pyrazol-3-yl)-3-{(1S,4R)-4-[3-(1-methyl-1-pyrrolidin-1-yl-ethyl)-[1,2,4]triazolo[4,3-a]pyridin-6-yloxy]-1,2,3,4-tetrahydro-naphthalen-1-yl}-urea]
[1]
  IC50: < 10 nM
[2]
  IC50: < 10 nM

## Cc1ccc(-n2nc(C(C)(C)C)cc2NC(=O)N[C@H]2CC[C@@H](Oc3ccc4nnc(N5CCCC[C@@H]5C)n4c3)c3ccccc32)cc1 [Example 81, 1-(5-tert-Butyl-2-p-tolyl-2H-pyrazol-3-yl)-3-{(1S,4R)-4-[3-((S)-2-methyl-piperidin-1-yl)-[1,2,4]triazolo[4,3-a]pyridin-6-yloxy]-1,2,3,4-tetrahydro-naphthalen-1-yl}-urea]
[1]
  IC50: < 10 nM
[2]
  IC50: < 10 nM

## Cc1ccc(-n2nc(C(C)(C)C)cc2NC(=O)N[C@H]2CC[C@@H](Oc3ccc4nnc(N5CCCC[C@H]5C)n4c3)c3ccccc32)cc1 [Example 82, 1-(5-tert-Butyl-2-p-tolyl-2H-pyrazol-3-yl)-3-{(1S,4R)-4-[3-((R)-2-methyl-piperidin-1-yl)-[1,2,4]triazolo[4,3-a]pyridin-6-yloxy]-1,2,3,4-tetrahydro-naphthalen-1-yl}-urea]
[1]
  IC50: < 10 nM
[2]
  IC50: < 10 nM

## Cc1ccc(-n2nc(C(C)(C)C)cc2NC(=O)N[C@H]2CC[C@@H](Oc3ccc4nnc([C@H]5COCCN5C)n4c3)c3ccccc32)cc1 [Example 83, 1-(5-tert-Butyl-2-p-tolyl-2H-pyrazol-3-yl)-3-{(1S,4R)-4-[3-((S)-4-methyl-morpholin-3-yl)-[1,2,4]triazolo[4,3-a]pyridin-6-yloxy]-1,2,3,4-tetrahydro-naphthalen-1-yl}-urea, partial formate salt]
[1]
  IC50: < 10 nM
[2]
  IC50: < 10 nM

## Cc1ccc(-n2nc(C(C)(C)C)cc2NC(=O)N[C@H]2CC[C@@H](Oc3ccc4nnc([C@@H]5CCCN5CCCO)n4c3)c3ccccc32)cc1 [Example 84, 1-(5-tert-Butyl-2-p-tolyl-2H-pyrazol-3-yl)-3-((1S,4R)-4-{3-[(S)-1-(3-hydroxy-propyl)-pyrrolidin-2-yl]-[1,2,4]triazolo[4,3-a]pyridin-6-yloxy}-1,2,3,4-tetrahydro-naphthalen-1-yl)-urea]
[1]
  IC50: < 10 nM
[2]
  IC50: < 10 nM

## Cc1ccc(-n2nc(C(C)(C)C)cc2NC(=O)N[C@H]2CC[C@@H](Oc3ccc4nnc([C@]5(CO)CCCN5C)n4c3)c3ccccc32)cc1 [Example 85, 1-(5-tert-Butyl-2-p-tolyl-2H-pyrazol-3-yl)-3-{(1S,4R)-4-[3-((S)-2-hydroxymethyl-1-methyl-pyrrolidin-2-yl)-[1,2,4]triazolo[4,3-a]pyridin-6-yloxy]-1,2,3,4-tetrahydro-naphthalen-1-yl}-urea]
[1]
  IC50: < 10 nM
[2]
  IC50: < 10 nM

## Cc1ccc(-n2nc(C(C)(C)C)cc2NC(=O)N[C@H]2CC[C@@H](Oc3ccc4nnc(C5CN(C)CCN5C)n4c3)c3ccccc32)cc1 (stereo partly drawn) [Example 86, 1-(5-tert-Butyl-2-p-tolyl-2H-pyrazol-3-yl)-3-{(1S,4R)-4-[3-(1,4-dimethyl-piperazin-2-yl)-[1,2,4]triazolo[4,3-a]pyridin-6-yloxy]-1,2,3,4-tetrahydro-naphthalen-1-yl}-urea formate salt]
[1]
  IC50: < 10 nM
[2]
  IC50: < 10 nM
